Laboratory results: patent US7897636B2, “Sulfamide derivative useful for the treatment of epilepsy” (Janssen Pharmaceutica NV, priority 2007, dated 2011)

Tested on: MES-induced seizure
Test: Maximal Electroshock Test (MES), anticonvulsant activity
Assay type: in vivo, CF-1 male albino mice
Description: Anticonvulsant activity was determined using the MES test, run according to the procedure described in detail below. Swinyard E A, Woodhead J H, White H S, Franklin M R. Experimental selection, quantification, and evaluation of anticonvulsants. In Levy R H, et al., eds. Antiepileptic Drugs. 3rd ed. New York: Raven Press, 1989:85-102 CF-1 male albino mice (25-35 g) were randomly selected into control and test groups, with the animals dosed with vehicle or test compound, at varying time-points and concentrations, respectively. On the study date, the mice were dosed by intraperitoneal (i.p.) injection with vehicle (30% Solutol) or test compound (50-250 mg/kg). Seizures were induced by trans-corneal electric shock using a 60-Hz alternating current, 50 mA, delivered for 0.2 sec. The mice in the test groups were subjected to electrical stimulus at time intervals between 15 minutes and 4 hours following administration of test compound. […] The test was complete when the entire course of the convulsion has been observed (typically, less than 1 minute after electrical stimulation). […] The ED50 value of the test compounds was the calculated dose required to block the hind limb tonic-extensor component of the MES-induced seizure in 50% of the rodents tested. […] Representative compounds of the present invention were tested according to the procedure described above, with results as listed in Table 1 below. Results are listed as (number of mice with full body tonic extension prevented)/(total number of mice tested) (@ a given time). ED50 values were determined at the time of peak effect (1 hr, Table 1).

[1] = 100 mg/kg i.p., 1.0 Hrs after dosing
[2] = 100 mg/kg i.p., 2 Hrs after dosing
[3] = 200 mg/kg i.p., 0.25 Hrs after dosing
[4] = 200 mg/kg i.p., 0.50 Hrs after dosing
[5] = 200 mg/kg i.p., 1.0 Hrs after dosing
[6] = 200 mg/kg i.p., 2 Hrs after dosing
[7] = 200 mg/kg i.p., 4 Hrs after dosing

SMILES | MES Activity: (number of mice with full body tonic extension prevented)/(total number of mice tested) [1] | MES Activity: (number of mice with full body tonic extension prevented)/(total number of mice tested) [2] | MES Activity: (number of mice with full body tonic extension prevented)/(total number of mice tested) [3] | MES Activity: (number of mice with full body tonic extension prevented)/(total number of mice tested) [4] | MES Activity: (number of mice with full body tonic extension prevented)/(total number of mice tested) [5] | MES Activity: (number of mice with full body tonic extension prevented)/(total number of mice tested) [6] | MES Activity: (number of mice with full body tonic extension prevented)/(total number of mice tested) [7] | ED50 (Mus musculus, ip, 1 h, mice, i.p., at time of peak effect (1 hr), probit analysis, read-out: ED50 (dose required to block the hind limb tonic-extensor component of the MES-induced seizure in 50% of the rodents)) [mg/kg]
NS(=O)(=O)NCc1c[s+]([O-])c2ccccc12 (single isomer, unassigned; (+)) [(+)-enantiomer, N-[(1-oxidobenzo[b]thien-3-yl)methyl]-sulfamide] | 1/4 | 0/4 | 0/3 | 4/5 | 5/5 | 5/5 | 1/5 | 127
NS(=O)(=O)NCc1c[s+]([O-])c2ccccc12 (single isomer, unassigned; (-)) [(−)-enantiomer, N-[(1-oxidobenzo[b]thien-3-yl)methyl]-sulfamide] | 2/4 | 1/4 | 1/4 | 2/5 | 5/5 | 5/5 | 1/5 | 
